Measured values published in patent US7576177B2, “Hsp peptides and analogs for modulation of immune responses via antigen presenting cells” (Andromeda Biotech Ltd., priority 2002, dated 2009).

Key:
[1] = tested on: peripheral blood monocytes; assay: Peripheral blood monocytes: IP-10 after direct stimulation or preincubation then LPS; format: cell-based, human
Procedure: Peripheral blood mononuclear cells were prepared from leucocytes of blood lots obtained from the blood bank. The cells were plated at a concentration of 4×10^6 cell/ml/well in 24 well tissue culture dishes in medium containing 10% fetal calf serum. The cells were allowed to adhere for 2 hours at 37° C. After this time, non-adherent cells were washed away and the adherent cells incubated in fresh medium containing 10% human AB serum for 6-8 days, changing the medium after 4 days. These culture conditions were reported to give rise to monocytes.
For stimulation the medium was replaced with medium without serum. For preincubation, the cells were exposed overnight to the tested compounds at various concentrations and then LPS was added. The supernatant was collected after a further overnight incubation and tested for various cytokines by ELISA assays.

J774 cells = conditions: 48 hours
Procedure: Nitric oxide is a proinflammatory mediator produced by macrophages. The classic stimulus for nitric oxide production is lipopolysaccharide (LPS). Other molecules derived from pathogens such as hsp60 also induce macrophages to produce nitric oxide. Nitric oxide is usually produced by cells in conjunction with TNFα, IL-1 and IL-6.
The effect of p277(Val^6-Val^11) was tested on the production of nitric oxide from a macrophage cell line both the direct effect and the effect of p277(Val^6-Val^11) on the nitric oxide produced in response to hsp60.
The assay method is described in full in WO 01/43691. Briefly, J774 cells (2×10^5 cells/assay) were incubated for 48 hours with LPS, hsp60 or p277(Val^6-Val^11) or in inhibition assay, the cells were incubated with hsp60 at various concentrations in the presence or absence of 20 μg/ml p277(Val^6-Val^11). After 48 hours the supernatant was collected and tested for nitric oxide. The test for nitric oxide is performed by mixing an equal volume of the cell supernatant with Griess reagent and measuring the resultant color at 550 nm.

[2] = tested on: BALB/c DO.11.10 bone marrow cells cultured for dendritic cells, cocultured with DO.11.10 T cells; assay: Education of mouse dendritic cells and stimulation of T-cells, cytokine content of supernatant; format: cell-based; conditions: for IFN secretion of T cells / IL-4 secretion of T cells / IL-10 secretion of T cells / IL-12 secretion of T cells: 0.3 nM Ova peptide
Procedure: Whelan et al. (J. Immunol 164, 6453-6460, 2000) addressed the problem in mice by an experiment in which mouse bone marrow cells were grown for 6 days in culture with GM-CSF to give immature dendritic cells. These dendritic cells were then incubated overnight with LPS (known to drive cells to DC1) or with a nematode antigen. The reason for the choice of nematode antigen was that injection of this antigen in vivo gives rise to a Th2 response in animals. After this so-called “education” of the dendritic cells, they were washed and subsequently incubated with naive T cells in the presence of antigenic stimulus. The experiment was possible because of the use of transgenic mice in which all the T cells respond to the same peptide (OVA323-339) which absolves the system from any question of bias of the T cell response at the level of the T cells. Any bias should be a consequence of the “education” of the dendritic cells. After three days of incubation the cytokine responses produced by the T cells, were measured by ELISA. […] In contrast, nematode antigen incubation gave rise to more IL-4 (Th2) than did controls while the LPS incubation inhibited the IL4 response. Therefore, the nematode antigen was said to drive cells to DC2. A similar method was used for testing the compounds of the present invention: • 1. Bone marrow cells were extracted from the leg bones of DO.11.10 mice transgenic for the TcR. All cells from these mice respond to the OVA peptide ([…]). • 2. Bone marrow cells were plated at 10^6 cells/ml in 100 mm diameter tissue culture petri dishes in Iscove's medium supplemented with 10% FCS, […], 1 mM sodium pyruvate, penicillin/streptomycin (according to manufacturer's recommendations), non-essential amino acids, 50 μM β-mercaptoethanol and 10 ng/ml mGM-CSF. • 3. After 4 days, the medium was carefully removed and replaced with fresh medium • 4. After 6 days, the non-adherent cells were harvested and used as immature dendritic cells • 5. The immature dendritic cells are plated at 1×10^6 cells/ml, 1 ml/well in 24 well plates in the above medium with various reagents added at various concentrations and incubated overnight. This is the stage in which the dendritic cells are “educated” • 6. The next day the cells were harvested and washed 3 times then resuspended at 5×10^4 cells/ml in 1 ml of the above medium but without the addition of GM-CSF to be cocultured with T cells • 7. […] 5×10^5 T cells were cultured with the dendritic cells from step 6 in the presence of various concentrations of the OVA peptide (0, 0.3 nM, 3 nM and 30 nM). • 9. After 3 days PMA (50 ng/ml) and ionomycin (500 ng/ml) were added to further stimulate the cells. • 10. The next day the cell supernatants were collected and assayed for cytokine content (Interferon γ, IL4, IL-10 and IL-12).
The compound was tested for stimulation of DO.11.10 bone marrow cells according to the assay described above (Production and education of mouse dendritic cells and stimulation of T-cells).
BALB/c DO.11.10 bone marrow cells were cultured for dendritic cells and then stimulated with LPS 1 μg/ml, LPS 10 μg/ml, hsp60 3 μg/ml, hsp60 10 μg/ml, p277 5 μg/ml and p277 50 μg/ml. The cells were then transferred to wells with T cells from fresh BALB/c DO.11.10 mice and stimulated with OVA peptide at different concentrations (0, 0.3 nM, 3 nM, 30 nM). Supernatant was collected after 48 hours for assay. 30 μl was taken for IFN, 40 μl for IL4 and IL-10 and 50 μl for IL-12 assays. The results are presented in the following tables, as amount of cytokine (pg/ml), and in FIG. 1.

[3] = dendritic cells educated with 5 μg/ml
[4] = dendritic cells educated with 50 μg/ml

VLGGGVALLRVIPALDSLTPANED [p277(Val^6-Val^11)]
amount of IP-10 produced in response to stimulus with LPS after preincubation ([1]; overnight preincubation, then LPS, FIG. 4): did increase the amount of IP-10
IP-10 after direct stimulation ([1]; peripheral blood monocytes, no preincubation, FIG. 4): did not give rise directly to II-10
IP-10 in response to hsp60 after preincubation ([1]; preincubation with p277(Val^6-Val^11), then hsp60): did not give rise to IP-10
direct stimulation of nitric oxide production (J774 cells): Under no conditions did the peptide stimulate nitric oxide production
inhibition of hsp60 induced nitric oxide (J774 cells; hsp60 at various concentrations with 20 μg/ml peptide): Neither did it inhibit the hsp60 induced nitric oxide produced
IL-4 produced by T cells after exposure of dendritic cells (in words) ([2]; compared with non-exposed dendritic cells): more IL-4 than non-exposed dendritic cells
IFN secretion of T cells [2, 3]: 722.22 pg/mL
IL-4 secretion of T cells [2, 3]: 36.96 pg/mL
IL-10 secretion of T cells [2, 3]: 32.53 pg/mL
IL-12 secretion of T cells [2, 3]: 177.50 pg/mL
IFN secretion of T cells [2, 4]: 373.89 pg/mL
IL-4 secretion of T cells [2, 4]: 82.29 pg/mL
IL-10 secretion of T cells [2, 4]: 27.15 pg/mL
IL-12 secretion of T cells [2, 4]: 82.50 pg/mL
